Data on 3 compounds can be found in patent publication US20170119776A1, “CHIRAL 2,5-DISUBSTITUTED CYCLOPENTANECARBOXYLIC ACID DERIVATIVES AND USE THEREOF” (BAYER PHARMA AKTIENGESELLSCHAFT, priority 2014, published 2017).

T1 sequence (P39900 106-470): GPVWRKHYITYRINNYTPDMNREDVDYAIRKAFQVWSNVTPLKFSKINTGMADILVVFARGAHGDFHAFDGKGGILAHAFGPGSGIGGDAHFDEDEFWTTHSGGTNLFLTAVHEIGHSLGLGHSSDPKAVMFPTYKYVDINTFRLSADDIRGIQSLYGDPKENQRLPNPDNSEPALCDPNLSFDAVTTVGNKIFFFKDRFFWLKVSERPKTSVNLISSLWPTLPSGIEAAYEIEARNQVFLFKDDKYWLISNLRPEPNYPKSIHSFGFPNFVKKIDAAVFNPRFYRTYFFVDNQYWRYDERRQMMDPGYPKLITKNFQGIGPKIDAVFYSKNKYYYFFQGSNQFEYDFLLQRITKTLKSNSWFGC

The assay concerns the target T1, human macrophage elastase (HME/hMMP-12) (Homo sapiens, UniProt P39900).
T1 construct: 0.5 nM HME; purchased R&D Systems 917-MP
As to the kind of experiment: In vitro HME inhibition test (standard / high-sensitivity), without BSA. Format: biochemical. Particulars: absence of serum albumin (BSA). An excerpt:
The activity of the compounds according to the invention towards HME (MMP-12) is ascertained in an in vitro inhibition test. The HME-mediated amidolytic cleavage of a suitable peptide substrate leads herein to a fluorescent light increase. The signal intensity of the fluorescent light is directly proportional to the enzyme activity. The active concentration of a test compound at which half of the enzyme is inhibited (50% signal intensity of the fluorescent light) is given as IC50 value.
In a 384 hole microtiter plate, in a test volume of in total 41 μl of the test buffer (0.1 M HEPES pH 7.4, 0.15 M NaCl, 0.03 M CaCl2, 0.004 mM ZnCl2, […], 0.005% Brij®), the enzyme (0.5 nM HME; R&D Systems, 917-MP, autocatalytic activation according to the manufacturer's instructions) and the intramolecularly quenched substrate [5 μM Mca-Pro-Leu-Gly-Leu-Glu-Glu-Ala-Dap(Dnp)-NH2; Bachem, M-2670] are incubated in the absence and presence of the test substance (as solution in DMSO) for two hours at 37° C. The fluorescent light intensity of the test batches is measured (excitation 323 nm, emission 393 nm). The IC50 values are ascertained by plotting the fluorescent light intensity against the active ingredient concentration.
If subnanomolar IC values are produced for high potent test substances in the standard HME inhibition test described above, then a modified test is used for their more precise determination. Here, a ten-fold lower enzyme concentration is used (final concentration e.g. 0.05 nM), in order to achieve an increased sensitivity of the test. The incubation time of the test is accordingly chosen to be longer (e.g. 16 hours).
Table 1 below gives the IC50 values from these HME inhibition tests for the working examples of the present invention and also for two structurally related comparison compounds from the prior art (as racemate or separated enantiomers)→(sometimes as average values from several independent individual determinations and rounded to two significant places). The IC50 values were determined for racemates and enantiomers from differently generated DMSO stock solutions. Whereas an automatically created DMSO stock solution from the internal substance logistics was used for racemates by means of a standard method, for enantiomers and for a more precise direct comparison of the enantiomers with one another, in each case a freshly produced, manually prepared DMSO stock solution was used.
`O=C(O)[C@@H]1[C@@H](Cn2nnc3ccccc3c2=O)CC[C@H]1C(=O)c1ccc(OCc2ccccc2)cc1` [Example 3, (−)-(1R,2R,5S)-2-[4-(Benzyloxy)benzoyl]-5-[(4-oxo-1,2,3-benzotriazin-3(4H)-yl)methyl]cyclopentanecarboxylic acid]: the midpoint of inhibition, the IC50, lay at 14 nM.
In the case of `O=C(O)[C@@H]1[C@@H](Cn2nnc3ccccc3c2=O)CC[C@H]1C(=O)c1ccc(-c2ccc(Cl)cc2)cc1` (single isomer, unassigned; enantiomer 1) [Comparative Example A-2, (1RS,2RS,5SR)-2-[(4′-chlorobiphenyl-4-yl)carbonyl]-5-[(4-oxo-1,2,3-benzotriazin-3(4H)-yl)methyl]cyclopentanecarboxylic acid (enantiomer 1)] it was 66 nM; in that of `CCCCCOc1ccc(C(=O)CC(CCn2nnc3ccccc3c2=O)C(=O)O)cc1` (single isomer, unassigned; enantiomer 2) [Comparative Example B-3, (−)-4-Oxo-2-[2-(4-oxo-1,2,3-benzotriazin-3(4H)-yl)ethyl]-4-[4-(pentyloxy)phenyl]butanoic acid (enantiomer 2)], 160 nM.
